Measurements from publication PMC6199744, “Development of Chemical Proteomics for the Folateome and Analysis of the Kinetoplastid Folateome” (ACS Infectious Diseases, 2018).
Like-named read-outs stand apart in the source and are kept apart here.

Legend:
[1] = target: PTERIDINE REDUCTASE (TB927.8.2210) (Trypanosoma brucei brucei, UniProt O76290); assay: Multitargeted bead mixture competition; assay type: binding, T. brucei; details: for fold change vs vehicle control / fold change - vehicle control: protein PTERIDINE REDUCTASE (CZT00009056.1); for fold change vs vehicle control: vehicle control = 1; for competition for PTR1 (Figure 6): bead mixture, compound 100 μM
[2] = target: DIHYDROFOLATE REDUCTASE-T[…] (TB427.07.5480) (Trypanosoma brucei brucei, UniProt Q27783); assay: Multitargeted bead mixture competition; assay type: binding; details: for fold change vs vehicle control: vehicle control = 1
[3] = target: GLYCERALDEHYDE 3-PHOSPHATE DEHYDROGENASE, GLYCOSOM (TB427.06.4300) (Trypanosoma brucei brucei, UniProt P22512); assay: Multitargeted bead mixture competition; assay type: binding, T. brucei; details: for fold change / fold change - vehicle control: protein TB427.06.4300 GLYCERALDEHYDE 3-PHOSPHATE DEHYDROGENASE, GLYCOSOMAL; for fold change: vehicle control = 1
[4] = tested on: NGG1 INTERACTING FACTOR 3-LIKE (Tb427tmp.02.5000); assay type: binding; details: for fold change: vehicle control = 1
[5] = tested on: IRON/ASCORBATE OXIDOREDUCTASE FAMILY PROTEIN, PUTA (Tb427.02.6180); assay: Multitargeted bead mixture competition; assay type: binding, T. brucei; details: for fold change: PUTATIVE
[6] = tested on: phenylalanine-4-hydroxylase (PAH); assay: Multitargeted bead mixture competition; assay type: binding, L. major; details: for fold change vs vehicle control: protein LMJF.28.1280 PHENYLALANINE-4-HYDROXYLASE,PHENYLALANINE-4-HYDROXYLASE, PUTATIVE; for binding and competition to phenylalanine-4-hydroxylase (PAH): bead mixture, L. major lysate; for fold change: protein LMJF.28.1280 PHENYLALANINE-4-HYDROXYLASE, vehicle control = 1
[7] = tested on: DHCH; assay: Multitargeted bead mixture competition; assay type: binding, L. major; details: CYTOPLASMIC, PUTATIVE; for fold change: vehicle control = 1
[8] = tested on: dynein associated protein (Tb09.211.4920); assay: Multitargeted bead mixture competition; assay type: binding, T. brucei; details: for fold change / fold change - vehicle control: protein TB09.211.4920 DYNEIN-ASSOCIATED PROTEIN, PUTATIVE; for fold change: vehicle control = 1
[9] = target: variant surface glycoprotein 221 (VSM2.TRYBB) (Trypanosoma brucei brucei, UniProt P26332); assay type: binding, T. brucei; details: for fold change / fold change - vehicle control: protein VSM2_TRYBB VARIANT SURFACE GL[…] 1.2; for fold change: vehicle control = 1
[10] = tested on: methylthioadenosine phosphorylase (LmjF.05.0830); assay: Multitargeted bead mixture competition; assay type: binding, Leishmania; details: for fold change vs vehicle control: protein LMJF.05.0830 METHYLTHIOADENOSINE PHOSPHORYLASE, PUTATIVE
[11] = target: T1, MTHFS, the 5-formyl-THF-cyclo-ligase (Homo sapiens, UniProt P49914); assay: Multitargeted bead mixture competition, HeLa cell extract; assay type: binding; details: for binding to MTHFS: bead mixture, HeLa cell extract
T1 sequence (P49914 1-203): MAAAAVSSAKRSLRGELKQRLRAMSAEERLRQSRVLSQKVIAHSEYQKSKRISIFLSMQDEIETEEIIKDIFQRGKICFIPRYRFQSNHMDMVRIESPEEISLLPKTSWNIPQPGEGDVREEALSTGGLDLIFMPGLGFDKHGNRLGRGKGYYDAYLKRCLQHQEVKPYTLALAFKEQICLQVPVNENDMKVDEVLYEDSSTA

[12] = target: T2, TS (Homo sapiens, UniProt P04818); assay: as above; assay type: binding
T2 construct: endogenous in cells; host or cells: HeLa cell extract
T2 sequence (P04818 whole entry): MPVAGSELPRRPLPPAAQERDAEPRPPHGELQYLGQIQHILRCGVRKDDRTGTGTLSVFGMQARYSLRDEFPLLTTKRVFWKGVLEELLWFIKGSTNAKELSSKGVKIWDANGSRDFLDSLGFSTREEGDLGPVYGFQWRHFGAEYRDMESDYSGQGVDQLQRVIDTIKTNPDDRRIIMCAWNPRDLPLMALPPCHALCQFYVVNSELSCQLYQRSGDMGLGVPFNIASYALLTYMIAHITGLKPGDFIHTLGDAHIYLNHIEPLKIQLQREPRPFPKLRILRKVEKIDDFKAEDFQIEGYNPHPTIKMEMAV

[13] = target: T3, PTR1 (Leishmania major, UniProt Q01782); assay type: binding; parameters: endogenous in cells; host or cells: L. major Friedlin promastigote lysate
T3 sequence (Q01782 1-288): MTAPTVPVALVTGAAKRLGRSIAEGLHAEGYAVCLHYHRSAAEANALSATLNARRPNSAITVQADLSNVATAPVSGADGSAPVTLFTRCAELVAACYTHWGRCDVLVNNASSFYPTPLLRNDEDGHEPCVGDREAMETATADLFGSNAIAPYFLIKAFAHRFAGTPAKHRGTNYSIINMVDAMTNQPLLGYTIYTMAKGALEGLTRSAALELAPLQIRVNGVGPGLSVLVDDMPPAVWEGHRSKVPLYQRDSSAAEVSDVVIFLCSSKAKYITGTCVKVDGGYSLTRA

[14] = protein TB427.07.5480 DIH[…]-T[…]
[15] = protein TB427TMP.02.5000 NGG1 INTERACTING FACTOR 3-LIKE
[16] = protein TB427.02.6180 IRON/ASCORBATE OXIDOREDUCTASE FAMILY PROTEIN, vehicle control = 1
[17] = protein LMJF.26.0320 C-1-TETRAHYDROFOLATE SYNTHASE
[18] = vs vehicle control, protein LMJF.23.0270 PTERIDINE REDUCTASE 1
[19] = protein TB427TMP.02.5000 NGG1 I[…] 3-LIKE
[20] = protein TB427.02.6180 IRON/ASCORBATE OXID[…] PROTEIN, vehicle control = 1
[21] = protein LMJF.26.0320 C-1-TETRAH[…]
[22] = bead mixture, T. brucei lysates
[23] = relative to vehicle control = 1, protein TB427.02.6180 IRON/ASCORBATE OXIDOREDUCTASE FAMILY PROTEIN
[24] = LMJF.23.0270 PTERIDINE REDUCTASE 1, vehicle control = 1

Nc1nc2c(c(=O)[nH]1)N(C=O)C(CNc1ccc(C(=O)N[C@@H](CCC(=O)O)C(=O)O)cc1)CN2 (stereo partly drawn) [LEU, leucovorin]
fold change vs vehicle control [1]: 0.92
fold change vs vehicle control [2, 14]: 1.45
fold change [3]: 1.01
fold change [4, 15]: 0.98
fold change [5, 16]: 0.92
fold change vs vehicle control [6]: 0.99
fold change [7, 17]: 0.98
fold change [8]: 0.78
fold change [9]: 3.08
fold change vs vehicle control [10]: 0.96
binding to MTHFS [11]: bound MTHFS
fold changes relative to vehicle control ([11]; protein MTHFS, HeLa): 0.15
inhibition, TS ([12]; bead mixture, HeLa cell extract): > 56%
fold changes relative to vehicle control ([12]; protein TYMS, HeLa): 0.44
fold change [13, 18]: 1.04

Nc1nc2[nH]cc(CCc3ccc(C(=O)N[C@@H](CCC(=O)O)C(=O)O)cc3)c2c(=O)[nH]1 [PTX, pemetrexed]
competition for PTR1 (Figure 6) ([1]; T. brucei lysate): competed for PTR1
fold change vs vehicle control [1]: 0.16
fold change vs vehicle control ([2]; protein TB427.07.5480 DIHYDROFOLATE REDUCTASE-T[…]): 1.19
fold change [3]: 0.91
fold change [4, 19]: 1.01
fold change [5, 20]: 0.95
binding and competition to phenylalanine-4-hydroxylase (PAH) [6]: binding and competition
fold change vs vehicle control [6]: 0.28
fold change [7, 21]: 0.79
binding to dynein associated protein (Tb09.211.4920) [8, 22]: bound specifically
fold change [8]: 0.9
binding to variant surface glycoprotein 221 (VSM2.TRYBB) [9, 22]: bound specifically
fold change [9]: 0.39
fold change vs vehicle control [10]: 0.91
fold changes relative to vehicle control [11]: 0.17
binding to MTHFS [11]: bound MTHFS
fold changes relative to vehicle control [12]: 0.34
inhibition, TS [12]: > 56%
fold change [13]: 0.52

CCCCCCOc1ccc(Cc2cnc(N)nc2N)cc1 [compound 1]
fold change - vehicle control [1]: 1
fold change - vehicle control [2, 14]: 1.45
fold change - vehicle control [3]: 0.93
fold change [4, 19]: 1.08
fold change [5, 23]: 0.85
fold change [6]: 1.16
fold change vs vehicle control [7, 17]: 0.93
fold change - vehicle control [8]: 0.67
fold change - vehicle control [9]: 1.43
binding to methylthioadenosine phosphorylase (LmjF.05.0830) ([10]; bead mixture, Leishmania lysates): bound
fold change vs vehicle control [10]: 0.19
fold changes relative to vehicle control ([11]; captured protein MTHFS, HeLa): 0.21
fold changes relative to vehicle control ([12]; captured protein TYMS, HeLa): 0.76
fold change [13, 24]: 1.1

CCCCCCOc1cccc(Cc2cnc(N)nc2N)c1 [compound 2]
fold change - vehicle control [1]: 0.92
fold change - vehicle control [2, 14]: 1.44
fold change - vehicle control [3]: 1.01
fold change [4, 15]: 1.1
fold change [5, 23]: 0.92
fold change [6]: 1.1
fold change vs vehicle control [7, 17]: 0.96
fold change - vehicle control [8]: 0.91
fold change - vehicle control [9]: 1.6
fold change vs vehicle control [10]: 0.89
fold changes relative to vehicle control ([11]; captured protein MTHFS, HeLa): 0.89
fold changes relative to vehicle control ([12]; captured protein TYMS, HeLa): 1.31
fold change [13, 24]: 1.13

Nc1nc2cccc(-c3ccccc3)c2n1Cc1ccc(Cl)c(Cl)c1 [compound 3]
competition for PTR1 (Figure 6) ([1]; T. brucei lysate): competed for PTR1
percentage of competition from bead binding ([1]; multitargeted bead mixture, free ligand 100 μM, T. brucei lysate, TB927.8.2210 PTERIDINE REDUCTASE): 89%
fold change - vehicle control [1]: 0.15
percentage of competition from bead binding ([2]; multitargeted bead mixture, free ligand 100 μM, T. brucei lysate, TB427.07.5480 DHFR-TS): -11%
fold change - vehicle control [2, 14]: 0.98
percentage of competition from bead binding ([3]; multitargeted bead mixture, free ligand 100 μM, T. brucei lysate, TB427.06.4300 GAPDH): 3%
fold change - vehicle control [3]: 0.99
percentage of competition from bead binding ([4]; multitargeted bead mixture, free ligand 100 μM, T. brucei lysate, Tb427tmp.02.5000): -6%
fold change [4, 19]: 1.02
percentage of competition from bead binding ([5]; multitargeted bead mixture, free ligand 100 μM, T. brucei lysate, Tb427.02.6180): 0%
fold change ([5]; relative to vehicle control = 1, protein TB427.02.6180 IRON/ASCORBATE OXID[…] PROTEIN): 0.9
binding and competition to phenylalanine-4-hydroxylase (PAH) [6]: binding and competition
fold change [6]: 0.81
fold change vs vehicle control [7, 21]: 0.96
fold change - vehicle control [8]: 0.96
fold change - vehicle control [9]: 0.67
fold change vs vehicle control [10]: 0.94
fold changes relative to vehicle control ([11]; captured protein MTHFS, HeLa): 0.96
fold changes relative to vehicle control ([12]; captured protein TYMS, HeLa): 0.99
fold change [13, 24]: 0.99
competition for PTR1 (Figure 8a) ([13]; bead mixture, L. major lysate): no inhibition of PTR1

NCCOCCOCC(=O)Nc1nc2ncc(CNc3ccc(C(=O)NC(CCC(=O)O)C(=O)O)cc3)nc2c(=O)[nH]1 (stereo not drawn) [compound 6]
fold change vs vehicle control [1]: 0.49
fold change vs vehicle control [2, 14]: 1.09
fold change [3]: 0.92
fold change [4, 15]: 0.68
fold change [5, 16]: 0.28
fold change vs vehicle control [6]: 0.99
fold change [7, 17]: 0.98
fold change [8]: 0.86
fold change [9]: 2.16
fold change vs vehicle control [10]: 0.96
fold changes relative to vehicle control ([11]; protein MTHFS, HeLa): 0.5
fold changes relative to vehicle control ([12]; protein TYMS, HeLa): 0.55
fold change [13, 18]: 0.98

NCCCNc1ccc(C(=O)NC(CCC(=O)O)C(=O)O)cc1 (stereo not drawn) [compound 7]
fold change vs vehicle control [1]: 1.03
fold change vs vehicle control [2, 14]: 0.98
fold change [3]: 1.07
fold change [4, 19]: 1.16
fold change [5, 20]: 1.02
fold change vs vehicle control [6]: 1.02
fold change [7, 21]: 1.06
fold change [8]: 0.68
fold change [9]: 0.81
fold change vs vehicle control [10]: 1.02
fold changes relative to vehicle control ([11]; protein MTHFS, HeLa): 1.03
fold changes relative to vehicle control ([12]; protein TYMS, HeLa): 1.04
fold change [13, 18]: 1.02
